Structures can show the parent of a compound that is named as a salt.

The text below walks through data of US7332501B2, “Indol-3-yl-carbonyl-spiro-piperidine derivatives as V1a receptor antagonists” (Hoffmann-La Roche Inc., priority 2005, dated 2008).

The experiment deals with T1, human V1a receptor (Homo sapiens, UniProt P37288).
T1 construct: expressed in transfected cells; host or cells: HEK293 cells, transiently transfected; cell membranes
T1 sequence (P37288 whole entry): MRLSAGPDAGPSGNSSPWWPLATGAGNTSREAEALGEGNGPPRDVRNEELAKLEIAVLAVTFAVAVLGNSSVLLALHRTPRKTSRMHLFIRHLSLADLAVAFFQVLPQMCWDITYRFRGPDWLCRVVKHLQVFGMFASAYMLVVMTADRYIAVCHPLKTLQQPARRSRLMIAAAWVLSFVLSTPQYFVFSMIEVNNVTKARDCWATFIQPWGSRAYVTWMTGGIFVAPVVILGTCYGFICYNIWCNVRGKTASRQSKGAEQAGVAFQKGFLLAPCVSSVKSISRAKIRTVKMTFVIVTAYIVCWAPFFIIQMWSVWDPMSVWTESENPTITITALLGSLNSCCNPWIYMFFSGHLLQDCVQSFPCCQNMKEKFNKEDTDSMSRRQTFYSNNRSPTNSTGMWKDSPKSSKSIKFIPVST
In words: human V1a receptor binding (3H-Vasopressin SPA, HEK293 membranes). The note with it: displacement of 4 nM 3H-Vasopressin, membranes of HEK293 cells transiently transfected with human V1a receptor; Ki from IC50 by Cheng-Prussoff. As to the method:
The human V1a receptor was cloned by RT-PCR from total human liver RNA. The coding sequence was subcloned in an expression vector after sequencing to confirm the identity of the amplified sequence. […] Cell membranes were prepared from HEK293 cells transiently transfected with the expression vector and grown in 20 liter fermenters with the following protocol.
50 g cells are resuspended in 30 ml freshly prepared ice cold Lysis buffer (50 mM HEPES, 1 mM EDTA, 10 mM MgCl2 adjusted to pH=7.4+complete cocktail of protease inhibitor (Roche Diagnostics)). The cells are homogenized with Polytron for 1 min and sonicated on ice for 2×2 minutes at 80% intensity (Vibracell sonicator). The preparation is centrifuged 20 min at 500 g at 4° C., the pellet is discarded and the supernatant centrifuged 1 hour at 43,000 g at 4° C. (19,000 rpm). The pellet is resuspended in 12.5 ml Lysis buffer+12.5 ml Sucrose 20% and homogenized using a Polytron for 1-2 min. The protein concentration is determined by the Bradford method and aliquots are stored at −80° C. until use. For binding studies 60 mg Yttrium silicate SPA beads (Amersham) are mixed with an aliquot of membrane in binding buffer (50 mM Tris, 120 mM NaCl, 5 mM KCl, 2 mM CaCl2, 10 mM MgCl2) for 15 minutes with mixing. 50 ul of bead/membrane mixture is then added to each well of a 96 well plate, followed by 50 ul of 4 nM 3H-Vasopressin (American Radiolabeled Chemicals). For total binding measurement 100 ul of binding buffer are added to the respective wells, for non-specific binding 100 ul of […] cold vasopressin and for compound testing 100 ul of a serial dilution of each compound in 2% DMSO. The plate is incubated 1 h at room temperature, centrifuged 1 min at 1000 g and counted on a Packard Top-Count. Non-specific binding counts are subtracted from each well and data is normalized to the maximum specific binding set at 100%. To calculate an IC 50 the curve is fitted using a non-linear regression model (XLfit), and the Ki is calculated using the Cheng-Prussoff equation.
For the compound “1′-({6-Chloro-1-[(2S)-pyrrolidin-2-ylmethyl]-1H-indol-3-yl}carbonyl)-3H-spiro[2-benzofuran-1,4′-piperidine [Example 267]”, the Ki (in general, the equilibrium dissociation constant of an inhibitor or competing ligand from its target) came to 1.4 nM.
`O=C1OC2(CCN(C(=O)c3cn(CC(=O)N4CCOCC4)c4cc(Cl)ccc34)CC2)c2ccccc21` [Example 105, 1′-{[6-Chloro-1-(2-morpholin-4-yl-2-oxoethyl)-1H-indol-3-yl]carbonyl}-3H-spiro[2-benzofuran-1,4′-piperidin]-3-one] gave a Ki of 2.3 nM.
The value for `O=C1OC2(CCN(C(=O)c3cn(Cc4ccccn4)c4cc(Cl)ccc34)CC2)c2ccc(F)cc21` [Example 171, 1′-{[6-Chloro-1-(pyridin-2-ylmethyl)-1H-indol-3-yl]carbonyl}-5-fluoro-3H-spiro[2-benzofuran-1,4′-piperidin]-3-one] was 2.7 nM.
The value for `Cc1c(C(=O)N2C[C@H](C)C3(OC(=O)c4ccccc43)[C@@H](C)C2)c2ccccc2n1Cc1ccccc1` (racemic) [Example 15, (SS,RR)-1′-[(1-benzyl-2-methyl-1H-indol-3-yl)carbonyl]-3′,5′-dimethyl-3H-spiro[2-benzofuran-1,4′-piperidin]-3-one] was 14.8 nM.
The same measure for `O=C1OC2(CCN(C(=O)c3cn(CC4CN(Cc5ccccc5)CCO4)c4cc(Cl)ccc34)CC2)c2ccc(F)cc21` (stereo not shown) [Example 177, 1′-({1-[(4-Benzylmorpholin-2-yl)methyl]-6-chloro-1H-indol-3-yl}carbonyl)-5-fluoro-3H-spiro[2-benzofuran-1,4′-piperidin]-3-one]: 6.9 nM.
The compound `COc1ccccc1Cn1c(C)c(C(=O)N2CCC3(CC2)OCc2ccccc23)c2ccccc21` [Example 54, 1′-{[1-(2-methoxybenzyl)-2-methyl-1H-indol-3-yl]carbonyl}-3H-spiro[2-benzofuran-1,4′-piperidine]] showed a Ki of 2.5 nM.
The value for `Cc1c(C(=O)N2CCC3(CC2)OC(=O)c2cc(F)ccc23)c2ccccc2n1Cc1ccccc1` [Example 23, 1′-[(1-benzyl-2-methyl-1H-indol-3-yl)carbonyl]-5-fluoro-3H-spiro[2-benzofuran-1,4′-piperidin]-3-one] was 11 nM; that for `COc1ccc(Cn2c(C)c(C(=O)N3CCC4(CC3)OCc3ccccc34)c3ccccc32)cc1` [Example 55, 1′-{[1-(4-methoxybenzyl)-2-methyl-1H-indol-3-yl]carbonyl}-3H-spiro[2-benzofuran-1,4′-piperidine]] was 7.9 nM.
The same measure for `O=C1OC2(CCN(C(=O)c3cn(CC(=O)N4CCOCC4)c4cc(Cl)ccc34)CC2)c2ccc(F)cc21` [Example 113, 1′-{[6-Chloro-1-(2-morpholin-4-yl-2-oxoethyl)-1H-indol-3-yl]carbonyl}-5-fluoro-3H-spiro[2-benzofuran-1,4′-piperidin]-3-one]: 1.1 nM.
The same measure for `O=C(c1cn(CCCN2CCOCC2)c2cc(Cl)ccc12)N1CCC2(CC1)OCc1ccccc12` [Example 257, 1′-{[6-Chloro-1-(3-morpholin-4-ylpropyl)-1H-indol-3-yl]carbonyl}-3H-spiro[2-benzofuran-1,4′-piperidine]]: 3.1 nM.
The compound `O=C(Cn1cc(C(=O)N2CCC3(CC2)OC(=O)c2ccccc23)c2ccc(Cl)cc21)c1ccccc1F` [Example 153, 1′-({6-Chloro-1-[2-(2-fluorophenyl)-2-oxoethyl]-1H-indol-3-yl}carbonyl)-3H-spiro[2-benzofuran-1,4′-piperidin]-3-one] displayed a Ki of 1 nM.
The same measure for `CC(C)(C)OC(=O)Cn1cc(C(=O)N2CCC3(CC2)OC(=O)c2ccccc23)c2ccc(Cl)cc21` [Example 109, tert-Butyl {6-chloro-3-[(3-oxo-1′H,3H-spiro[2-benzofuran-1,4′-piperidin]-1′-yl)carbonyl]-1H-indol-1-yl}acetate]: 1.1 nM; for `CN1CCN(C(=O)Cn2cc(C(=O)N3CCC4(CC3)OC(=O)c3cc(F)ccc34)c3ccc(Cl)cc32)CC1` [Example 114, 1′-({6-Chloro-1-[2-(4-methylpiperazin-1-yl)-2-oxoethyl]-1H-indol-3-yl}carbonyl)-5-fluoro-3H-spiro[2-benzofuran-1,4′-piperidin]-3-one]: 1.3 nM.
The same measure for `O=C1OC2(CCN(C(=O)c3cn(Cc4cccc(F)c4)c4cc(Cl)ccc34)CC2)c2ccccc21` [Example 134, 1′-{[6-Chloro-1-(3-fluorobenzyl)-1H-indol-3-yl]carbonyl}-3H-spiro[2-benzofuran-1,4′-piperidin]-3-one]: 1 nM; for `CN1CCN(C(=O)c2[nH]c3cc(Cl)ccc3c2C(=O)N2CCC3(CC2)OC(=O)c2cc(F)ccc23)CC1` [Example 32, 1′-({6-chloro-2-[(4-methylpiperazin-1-yl)carbonyl]-1H-indol-3-yl}carbonyl)-5-fluoro-3H-spiro[2-benzofuran-1,4′-piperidin]-3-one]: 27.5 nM.
The value for `Cc1cc2c(C(=O)N3CCC4(CC3)OCc3ccccc34)cn(CC(=O)N(C)C)c2cc1Cl` [Example 213, 2-[6-Chloro-5-methyl-3-(1′H,3H-spiro[2-benzofuran-1,4′-piperidin]-1′-ylcarbonyl)-1H-indol-1-yl]-N,N-dimethylacetamide] was 3.3 nM.
`O=C(Cn1cc(C(=O)N2CCC3(CC2)OC(=O)c2cc(F)ccc23)c2ccc(Cl)cc21)c1cccc(F)c1` [Example 144, 1′-({6-Chloro-1-[2-(3-fluorophenyl)-2-oxoethyl]-1H-indol-3-yl}carbonyl)-5-fluoro-3H-spiro[2-benzofuran-1,4′-piperidin]-3-one] returned a Ki of 2 nM.
`CC(=O)N(C)CCn1cc(C(=O)N2CCC3(CC2)OCc2ccccc23)c2ccc(Cl)cc21` [Example 272, N-{2-[6-Chloro-3-(1′H,3H-spiro[2-benzofuran-1,4′-piperidin]-1′-ylcarbonyl)-1H-indol-1-yl]ethyl}-N-methylacetamide] yielded a Ki of 1.3 nM.
The value for `Cc1c(C(=O)N2CCC3(CC2)OC(=O)c2cc4c(cc23)OCO4)c2ccccc2n1Cc1ccccc1` [Example 34, 1′-[(1-benzyl-2-methyl-1H-indol-3-yl)carbonyl]-7H-spiro[furo[3,4-f][1,3]benzodioxole-5,4′-piperidin]-7-one] was 2.1 nM; that for `O=C1OC2(CCN(C(=O)c3cn(CC4CNCCO4)c4cc(Cl)ccc34)CC2)c2ccc(F)cc21` (stereo not shown) [Example 200, 1′-{[6-Chloro-1-(morpholin-2-ylmethyl)-1H-indol-3-yl]carbonyl}-5-fluoro-3H-spiro[2-benzofuran-1,4′-piperidin]-3-one dihydrochloride] was 5.8 nM; that for `CN(C)CCn1cc(C(=O)N2CCC3(CC2)OC(=O)c2cc(F)ccc23)c2ccc(Cl)cc21` [Example 111, 1′-({6-Chloro-1-[2-(dimethylamino)ethyl]-1H-indol-3-yl}carbonyl)-5-fluoro-3H-spiro[2-benzofuran-1,4′-piperidin]-3-one] was 2.4 nM.
The same measure for `CCN(CC)C(=O)c1[nH]c2cc(Cl)ccc2c1C(=O)N1CCC2(CC1)OC(=O)c1cc(F)ccc12` [Example 31, 6-chloro-N,N-diethyl-3-[(5-fluoro-3-oxo-1′H,3H-spiro[2-benzofuran-1,4′-piperidin]-1′-yl)carbonyl]-1H-indole-2-carboxamide]: 12.2 nM.
The same measure for `Cc1cc(Cn2cc(C(=O)N3CCC4(CC3)OCc3ccccc34)c3ccc(Cl)cc32)nn1C` [Example 240]: 2 nM; for `CN(C)CCn1cc(C(=O)N2CCC3(CC2)OCc2ccccc23)c2ccccc21` [Example 71, N,N-dimethyl-2-[3-(1′H,3H-spiro[2-benzofuran-1,4′-piperidin]-1′-ylcarbonyl)-1H-indol-1-yl]ethanamine]: 5.6 nM; for `CN(CCn1cc(C(=O)N2CCC3(CC2)OCc2ccccc23)c2ccc(Cl)cc21)S(C)(=O)=O` [Example 273, N-{2-[6-Chloro-3-(1′H,3H-spiro[2-benzofuran-1,4′-piperidin]-1′-ylcarbonyl)-1H-indol-1-yl]ethyl}-N-methylmethanesulfonamide]: 1.1 nM.
In turn, `O=C1OC2(CCN(C(=O)c3cn(Cc4cncnc4)c4cc(Cl)ccc34)CC2)c2ccc(F)cc21` [Example 174, 1′-{[6-Chloro-1-(pyrimidin-5-ylmethyl)-1H-indol-3-yl]carbonyl}-5-fluoro-3H-spiro[2-benzofuran-1,4′-piperidin]-3-one] displayed a Ki of 2.6 nM.
The value for `CNCCNC(=O)Cn1cc(C(=O)N2CCC3(CC2)OCc2ccccc23)c2ccc(Cl)cc21` [Example 251, 2-[6-Chloro-3-(1′H,3H-spiro[2-benzofuran-1,4′-piperidin]-1′-ylcarbonyl)-1H-indol-1-yl]-N-[2-(methylamino)ethyl]acetamide] was 2.1 nM.
The same measure for `Cn1cncc1Cn1cc(C(=O)N2CCC3(CC2)OCc2ccccc23)c2ccc(Cl)cc21` [Example 238]: 1.9 nM.
